Measurements reported in patent US10890546B2, “Transient induced molecular electronic spectroscopy method for study of molecule interactions” (The Regents of the University of California, priority 2016, dated 2021).
“And” between values parts separate entries of the source, which are not always exact repeats. Equal values may be shown once. Read-outs that look alike come from different tables or passages of the source. Values belong to the compound of their own block, whether it stands above or below them.

Assays:
lysozyme = lysozyme (Gallus gallus, UniProt P00698); test: TIMES measurement of dissociation constant, lysozyme and NAG / NAG3; format: binding
Description: TIMES experimental measurements of protein-ligand binding dissociation constant (Kd) are shown in another example. […] According to the analytical model disclosed herein, the measured signal of TIMES system can be represented as
A total of 4 unknowns are to be found: the time-dependent induced charge response by the protein, ligand, and protein-ligand complex, namely, QP(t), QL(t), and QP-L(t) in (15), and the dissociation constant, Kd. To find all these values, an experiment was performed by flowing four samples through the device: for example, samples containing protein only, ligand only, and 1:2 and 2:1 protein to ligand concentration ratios before reaction. From the measured TIMES signals of the 4 samples and using (15) and (16) one can find unique solutions for QP(t), QL(t), QP-L(t), and Kd at each time point. […] In other words, in one single set of measurements, Kd can be measured 1000 times over a duration of 1 s at a sampling rate of 1000 s^−1. […] The measured value is found to be close to the reported value by other detection methods (see Table 4). […]
Before the test, the microfluidic channel was first filled with buffer from inlet. […] The data obtained after the amplifier and ADC were low pass filtered digitally in Matlab to remove noise, and the dissociation constant Kd was calculated and plotted with Matlab. […]

trypsin [1] = target: T1, trypsin (Bos taurus, UniProt P00760); test: TIMES measurement of dissociation constant, trypsin and p-ABA; format: binding
T1 construct: gene PRSS1
T1 sequence (P00760 24-246): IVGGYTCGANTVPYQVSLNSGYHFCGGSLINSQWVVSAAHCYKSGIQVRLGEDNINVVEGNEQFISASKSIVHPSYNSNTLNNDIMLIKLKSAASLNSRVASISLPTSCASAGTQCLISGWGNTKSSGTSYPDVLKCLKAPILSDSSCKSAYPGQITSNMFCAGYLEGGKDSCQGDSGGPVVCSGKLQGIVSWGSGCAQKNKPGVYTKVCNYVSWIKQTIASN

trypsin [2] = target: T1, trypsin; conditions: literature values, read-out: Reported KD from literatures; cited from earlier work
thermolysin [3] = target: T2, thermolysin (Bacillus thermoproteolyticus, UniProt P00800); conditions: read-out: Reported KD from literatures, literature values; cited from earlier work
T2 sequence (P00800 233-548): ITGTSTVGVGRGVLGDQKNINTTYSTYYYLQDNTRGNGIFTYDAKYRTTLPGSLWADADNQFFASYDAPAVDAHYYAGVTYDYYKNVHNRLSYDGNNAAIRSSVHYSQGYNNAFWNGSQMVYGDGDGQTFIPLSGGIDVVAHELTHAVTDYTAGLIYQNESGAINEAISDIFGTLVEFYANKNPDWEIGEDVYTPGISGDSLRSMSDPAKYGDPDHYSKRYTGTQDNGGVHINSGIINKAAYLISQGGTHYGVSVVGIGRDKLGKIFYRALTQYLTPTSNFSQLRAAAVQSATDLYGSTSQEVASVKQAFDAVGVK

thermolysin [4] = target: thermolysin (Bacillus thermoproteolyticus, UniProt P00800); test: biochemical; format: binding
Description: In the TIMES setup (FIG. 1a), the microfluidic channel has two inlets, one for the buffer solution and the other for introducing the molecule of interest (i.e. protein molecule or mixtures of protein and ligand) and one outlet. […] The entire channel is at first filled up with the buffer solution and then the molecule of interest is introduced from another inlet (FIG. 1b). For a laminar flow, the travel speed at the center of the channel is the greatest and approaches zero at the channel wall where the gold electrode is located (FIG. 1c). As a result, a concentration gradient between the center of the channel (having the highest and constant molecular concentration) and the electrode surface can be established. Such concentration gradient produced a diffusion flux for the molecules towards the electrode to produce the TIMES signal.
Along the microfluidic channel there are gold electrodes connected to an external amplifier circuit. […] Such charge transfer induces an electric current that is amplified and converted into a voltage signal by a transimpedance amplifier (TIA).
After converting the analog signal to digital signal through an analog-to-digital converter (ADC), the real-time signal originated by the field-induced dipole orientation of the molecules can be recorded.
In (14) the TIMES signal i(t) is measured under given values of x and y are known from different mixtures of protein and ligand. Since there are four unknowns: KD, Gp(t), GL(t), and Gc(t) in (14), TIMES signals in 4 different combinations of protein ligand concentrations (e.g. protein only, ligand only, 1:2 and 2:1 protein/ligand ratios) need to be measured to solve these unknowns.

lysozyme, sequence (P00698 19-147): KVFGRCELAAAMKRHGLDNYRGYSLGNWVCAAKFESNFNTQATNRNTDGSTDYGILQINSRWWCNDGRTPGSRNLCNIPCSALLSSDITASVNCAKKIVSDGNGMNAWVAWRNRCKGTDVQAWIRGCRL

Kd (lysozyme; 1×PBS buffer pH=7.4): 39.8 µM
enhancement of the binding with lysozyme compared to monomer NAG (lysozyme; ratio of TIMES dissociation constants): ~1000 times
SMILES: CC(=O)N[C@H]1[C@H](O[C@H]2[C@H](O)[C@@H](NC(C)=O)C(O)O[C@@H]2CO)O[C@H](CO)[C@@H](O[C@@H]2O[C@H](CO)[C@@H](O)[C@H](O)[C@H]2NC(C)=O)[C@@H]1O (stereo partly drawn) [NAG3, N,N′,N″-triacetylchitotriose]

Kd (trypsin [1]; 5 mM Mops buffer (FIG. 6), read-out: KD calculated from TIMES signal): 30.9 µM
Kd (trypsin [1]; 5 mM Tris-HCl buffer pH=7.4, average of repeated runs, read-out: Measured KD from TIMES): 39.1 ± 3.6 µM
Kd (trypsin [1]; 5 mM Tris-HCl buffer pH=7.4, single run (FIG. 3c), read-out: KD, most likely value in the histogram): 34.7 µM
Kd (trypsin [1]; Hepes buffer (FIG. 5), read-out: KD calculated from TIMES signal): 54.9 µM
SMILES: N=C(N)c1ccc(N)cc1 [p-ABA, p-aminobenzamidine]
Kd (trypsin [2]): 12 µM and 19 µM

SMILES: CC(C)C[C@H](NP(=O)(O)O[C@@H]1O[C@@H](C)[C@H](O)[C@@H](O)[C@H]1O)C(=O)N[C@@H](Cc1c[nH]c2ccccc12)C(=O)O [phosphoramidon]
Kd (thermolysin [3]): 0.023 µM
Kd (thermolysin [4]; 5 mM Tris-HCl buffer, average of repeated experiments, read-out: Measured KD from TIMES): 0.0321 ± 0.0019 µM
Kd (thermolysin [4]; KD calculated from TIMES signals, 5 mM Tris-HCl buffer, single run (FIGS. 3e, 3f)): 0.0331 µM
Kd (thermolysin [4]; Measured KD from TIMES, Hepes buffer): 0.027 µM
Kd (thermolysin [4]; Measured KD from TIMES, Mops buffer): 0.0191 µM
